Data on eleven compounds can be found in ChEMBL document CHEMBL1201862, “PubChem BioAssay data set” (2004).

Structures are written as SMILES.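 Cultured in 96-well plates, cells were exposed to test compound for 48 hours across five concentrations. GI50 is the concentration that inhibits growth by half.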 Active and inactive are the calls of the source. No stated cut-off is given here; in the data, active = GI50 up to about 1.1 µM and inactive = higher.

Among the test systems are SK-MEL-2; SNB-19; CCRF-CEM; UACC-62; HT-29; NCI-H460; CAKI-1; A549; DU-145; A498; NCI-H226; PC-3; SK-MEL-28; BT-549; SF-539; SW-620; HOP-92; RPMI-8226; OVCAR-5; K562.
Holding throughout (assay): NCI anticancer screen, dose series, 48 h

Regarding `Oc1ccc(C(c2ccc(O)cc2)c2ccc(O)cc2)cc1`, the GI50 is 19.8 µM (inactive) in the assay with SK-MEL-2; 24.4 µM (inactive) in the assay on SNB-19; 33.6 µM (inactive) with CCRF-CEM; 14.5 µM (inactive) in the assay on UACC-62; 19 µM (inactive) in the assay on HT-29; 18.8 µM (inactive) with NCI-H460. In addition, the GI50 was 16.1 µM (inactive) in the assay with CAKI-1; 35.9 µM (inactive) in the assay on A549; 27.4 µM (inactive) in the assay on DU-145; 15.8 µM (inactive) with A498; 10.4 µM (inactive) in the assay on NCI-H226; 24 µM (inactive) in the assay on PC-3. Further, the GI50 is 19.3 µM (inactive) in the assay with SK-MEL-28; 20.5 µM (inactive) in the assay on BT-549; 20.8 µM (inactive) with SF-539; 26.8 µM (inactive) with SW-620; 18.1 µM (inactive) in the assay on HOP-92; 27.2 µM (inactive) with RPMI-8226.
As to `O=C1CCCCC1=C(I)I`, the GI50 in the assay with SK-MEL-2 is 16.7 µM (inactive); in the assay with SNB-19 it was 12.1 µM (inactive); with CCRF-CEM, 19.1 µM (inactive); in the assay on UACC-62, 17.1 µM (inactive); in the assay on OVCAR-5, 17.5 µM (inactive); in the assay with NCI-H460, 21.4 µM (inactive). In addition, the GI50 was 37.8 µM (inactive) in the assay on A549; 19.7 µM (inactive) in the assay on DU-145; 20.5 µM (inactive) in the assay with A498; 19.7 µM (inactive) in the assay with NCI-H226; 16.5 µM (inactive) with PC-3; 17 µM (inactive) with SK-MEL-28. The GI50 in the assay with BT-549 is 13 µM (inactive); in the assay with K562, 16 µM (inactive); in the assay with SF-539 it was 19.5 µM (inactive); in the assay on SW-620 it was 17.4 µM (inactive); with HOP-92, 15.4 µM (inactive); in the assay with RPMI-8226, 15.1 µM (inactive).
Turning to `CCNc1ncnc2sc(SCc3ccccc3)nc12`, the GI50 in the assay with SK-MEL-2 is > 100 µM (inactive); in the assay on SNB-19, > 100 µM (inactive); in the assay on CCRF-CEM it was 33.9 µM (inactive); in the assay with HT-29, 58.1 µM (inactive); with OVCAR-5, > 100 µM (inactive); in the assay on NCI-H460, 46.2 µM (inactive). Further, the GI50 with CAKI-1 was 71.6 µM (inactive); in the assay on A549 it was 36.5 µM (inactive); in the assay with DU-145 it was 75.7 µM (inactive); with A498, 61.9 µM (inactive); in the assay with NCI-H226 it was > 100 µM (inactive); in the assay with PC-3, 38.5 µM (inactive). For the same compound, the GI50 in the assay on SK-MEL-28 was > 100 µM (inactive); in the assay with BT-549, > 100 µM (inactive); in the assay with K562 it was 81.7 µM (inactive); in the assay with SF-539 it was > 100 µM (inactive); in the assay on SW-620, > 100 µM (inactive); with HOP-92, 19.6 µM (inactive). Moreover, the GI50 in the assay with RPMI-8226 was 43.3 µM (inactive).
With `CCCCCCCCCCCCP(=O)(O)OCC(N)C(=O)O` (centres undefined), the GI50 is 27.9 µM (inactive) with SK-MEL-2; 16.6 µM (inactive) with SNB-19; 33.7 µM (inactive) in the assay with HT-29; 34.1 µM (inactive) in the assay with OVCAR-5; 23.7 µM (inactive) with NCI-H460; 49.9 µM (inactive) in the assay with CAKI-1. Further, the GI50 with A549 was 24.8 µM (inactive); in the assay with DU-145, 40.4 µM (inactive); in the assay with A498, 23.5 µM (inactive); in the assay with NCI-H226, 40.7 µM (inactive); with PC-3, 16 µM (inactive); with SK-MEL-28, 43.3 µM (inactive). Further, the GI50 in the assay on BT-549 is 29.6 µM (inactive); with K562, 39.4 µM (inactive); with SF-539 it was 20.7 µM (inactive); in the assay with SW-620 it was 40.3 µM (inactive); in the assay on HOP-92, 25.4 µM (inactive); with RPMI-8226, 30.9 µM (inactive).
As to `COC(=O)[C@@H]1[C@H](O)CC[C@H]2[C@@]1(C)CC[C@@H](C)[C@]2(COC(C)=O)CC(=O)c1ccoc1`, the GI50 was > 50 µM (inactive) in the assay on SK-MEL-2; > 50 µM (inactive) in the assay on SNB-19; 16.7 µM (inactive) in the assay with CCRF-CEM; 20.9 µM (inactive) in the assay on UACC-62; > 50 µM (inactive) in the assay with HT-29; > 50 µM (inactive) in the assay on OVCAR-5. In addition, the GI50 in the assay with NCI-H460, with CAKI-1, with A549, with DU-145, with A498 and with NCI-H226 was > 50 µM (inactive) throughout. Moreover, the GI50 in the assay on PC-3, in the assay with SK-MEL-28, in the assay with BT-549, with SF-539, with SW-620 and with HOP-92 was > 50 µM (inactive) each time. The GI50 in the assay with RPMI-8226 was 26.1 µM (inactive).
On to `C/C(CC(O)(C(F)(F)F)C(F)(F)F)=N\N`, for which the GI50 in the assay with SK-MEL-2, with SNB-19, with CCRF-CEM, in the assay on UACC-62, with HT-29 and in the assay with OVCAR-5 was > 10 µM (inactive) each time. Moreover, the GI50 in the assay with NCI-H460, in the assay on CAKI-1, in the assay with A549, in the assay with DU-145, in the assay with A498 and with NCI-H226 was > 10 µM (inactive) in each case. The GI50 with PC-3, with SK-MEL-28, with BT-549, with K562, with SF-539 and with SW-620 was > 10 µM (inactive) in each case. Besides, the GI50 in the assay on HOP-92 and in the assay with RPMI-8226 was > 10 µM (inactive) each time.
Regarding `Cc1ccc2c(c1)-c1nc(N)c(C#N)c(-c3ccccc3)c1CCS2(=O)=O`, the GI50 is 45.8 µM (inactive) in the assay with SK-MEL-2; 23.6 µM (inactive) in the assay on SNB-19; 49.7 µM (inactive) in the assay with UACC-62; > 100 µM (inactive) with HT-29; 55 µM (inactive) in the assay with OVCAR-5; 75.2 µM (inactive) in the assay on NCI-H460. Also, the GI50 with CAKI-1 was 49.3 µM (inactive); in the assay with A549, 55 µM (inactive); with DU-145, 65.2 µM (inactive); in the assay on A498, 28.8 µM (inactive); in the assay on NCI-H226, 24.3 µM (inactive); in the assay with PC-3, 49.2 µM (inactive). For the same compound, the GI50 in the assay on SK-MEL-28 was > 100 µM (inactive); in the assay with BT-549, 36.4 µM (inactive); in the assay with K562 it was > 100 µM (inactive); in the assay on SW-620, > 100 µM (inactive); in the assay on HOP-92 it was 26.4 µM (inactive); with RPMI-8226, > 100 µM (inactive).
`Cc1cc(C)c2c(c1)C(=O)/C(=C/c1ccccc1C(=O)O)C2`: the GI50 in the assay with SK-MEL-2 is > 100 µM (inactive); in the assay on SNB-19, 50.1 µM (inactive); in the assay on CCRF-CEM, 44.2 µM (inactive); with UACC-62, 89.5 µM (inactive); in the assay with HT-29, 59 µM (inactive); with NCI-H460, 58.5 µM (inactive). Further, the GI50 is > 100 µM (inactive) in the assay with CAKI-1; 65.6 µM (inactive) in the assay with A549; > 100 µM (inactive) in the assay with DU-145; 67 µM (inactive) in the assay with A498; 30.9 µM (inactive) with NCI-H226; 43.2 µM (inactive) in the assay with PC-3. The GI50 in the assay on SK-MEL-28 was > 100 µM (inactive); in the assay on BT-549, 78 µM (inactive); in the assay on K562 it was 52.5 µM (inactive); in the assay on SF-539 it was 25.9 µM (inactive); in the assay with SW-620 it was 84.3 µM (inactive); with HOP-92 it was > 100 µM (inactive). Besides, the GI50 in the assay on RPMI-8226 is 55.1 µM (inactive).
Take `CCOc1cc(NC(C)=O)ccc1C(=O)N/N=C/c1ccco1`: the GI50 is > 100 µM (inactive) in the assay on SK-MEL-2; 39.3 µM (inactive) in the assay on CCRF-CEM; 77.3 µM (inactive) with UACC-62; > 100 µM (inactive) in the assay on HT-29; > 100 µM (inactive) in the assay on OVCAR-5; 24.5 µM (inactive) in the assay with NCI-H460. The GI50 in the assay with CAKI-1 was 76.6 µM (inactive); in the assay with DU-145, > 100 µM (inactive); in the assay on A498, 62.8 µM (inactive); in the assay on NCI-H226 it was > 100 µM (inactive); in the assay on PC-3 it was > 100 µM (inactive); with SK-MEL-28, > 100 µM (inactive). Moreover, the GI50 is > 100 µM (inactive) in the assay on BT-549; 4.05 µM (inactive) in the assay with K562; 89.7 µM (inactive) in the assay with SF-539; > 100 µM (inactive) with SW-620; 11.8 µM (inactive) in the assay on HOP-92; 78.3 µM (inactive) with RPMI-8226.
As to `Cc1cccc2oc3c(CC(=O)O)cccc3c(=O)c12`, the GI50 in the assay on SK-MEL-2 was 5.16 µM (inactive); in the assay with SNB-19, > 100 µM (inactive); with CCRF-CEM it was > 100 µM (inactive); in the assay on HT-29, > 100 µM (inactive); in the assay on NCI-H460, > 100 µM (inactive); in the assay on CAKI-1 it was > 100 µM (inactive). The GI50 in the assay with A549, in the assay on DU-145, in the assay with A498, in the assay with NCI-H226, with PC-3 and in the assay with SK-MEL-28 was > 100 µM (inactive) each time. The GI50 in the assay with BT-549, in the assay on K562, with SF-539, in the assay with SW-620, in the assay on HOP-92 and in the assay on RPMI-8226 was > 100 µM (inactive) each time.
Turning to `CC1=C2C(=CO[C@H](C)[C@H]2C)C(O)=C(C(=O)O)C1=O` [CITRININ], the GI50 in the assay with SK-MEL-2 was 16.3 µM (inactive); in the assay on SNB-19 it was 21.9 µM (inactive); in the assay on CCRF-CEM, 14.8 µM (inactive); in the assay on UACC-62 it was 20.3 µM (inactive); in the assay on HT-29 it was 33.9 µM (inactive); in the assay with OVCAR-5 it was 59.8 µM (inactive). In addition, the GI50 with CAKI-1 is 27.3 µM (inactive); in the assay with A549, 70.5 µM (inactive); in the assay on DU-145 it was 24.2 µM (inactive); with A498, 0.782 µM (active); in the assay with NCI-H226, 23.3 µM (inactive); in the assay with PC-3, 32 µM (inactive). Moreover, the GI50 is 31.8 µM (inactive) with SK-MEL-28; 13.3 µM (inactive) with BT-549; 15.3 µM (inactive) in the assay with K562; 12.3 µM (inactive) in the assay on SF-539; 20.6 µM (inactive) in the assay with SW-620; 25.1 µM (inactive) in the assay with HOP-92. In addition, in the assay on RPMI-8226, the GI50 was 15.8 µM (inactive).
